Experimental data from paper PMC5403252 (Pharmacology, biochemistry, and behavior, 2016).
Structures can show the parent of a compound that is named as a salt. Where two headings read alike, the source gives them in different places.

Tests used:
Sprague–Dawley rats [1] = assay: Acoustic startle: startle magnitude; format: in vivo, rat
Sprague–Dawley rats [2] = assay: Prepulse inhibition; format: in vivo, rat
Sprague–Dawley rats [3] = assay: Behavioral Pattern Monitor locomotor activity; format: in vivo, rat; details: 5-MeO-DMT 1 mg/kg SC, clorgyline 0.3 mg/kg pretreatment; fifth 10-min time block, p<0.05
[4] = 5-MeO-DMT and bufotenine levels in plasma by LC-ESI-SRM-MS/MS; format: in vivo, rat; details: for AUC / Cmax: rat, plasma, sc, 1 mg/kg, 1 mg/kg SC; for AUC: plasma AUC20→70 min for 5-MeO-DMT, trapezoidal rule; for Cmax: plasma Cmax of 5-MeO-DMT
[5] = 5-MeO-DMT and bufotenine levels in whole brain by LC-ESI-SRM-MS/MS; format: in vivo, rat; details: for Cmax: rat, whole brain, sc, 1 mg/kg, Cmax of 5-MeO-DMT in whole brain
5-HT2A [6] = details: rats; ref Bedard and Pycock 1977; Matthews and Smith 1980; cited from earlier work
5-HT2A [7] = details: cited from earlier work
5-HT uptake = details: ref Berge et al. 1983; Chang et al. 1993; Nagai et al. 2007; cited from earlier work
[8] = 10 mg/kg IP; ref Sitaram et al. 1987; cited from earlier work
[9] = after SC administration of 1 mg/kg
[10] = clorgyline 0.3 mg/kg pretreatment

COc1ccc2[nH]cc(CCN(C)C)c2c1 [5-MeO-DMT, 5-Methoxy-N,N-dimethyltryptamine]
Startle magnitude (mean±SEM) (Sprague–Dawley rats [1]; clorgyline 0.3 mg/kg pretreatment, 5-MeO-DMT 1.0 mg/kg SC, 45 min, experiment 2, n=12): 544.45±62.88
Startle magnitude (mean±SEM) (Sprague–Dawley rats [1]; vehicle pretreatment, 5-MeO-DMT 0.1 mg/kg SC, tested 45 min post-injection, experiment 1, n=10): 180.58±37.92
Startle magnitude (mean±SEM) (Sprague–Dawley rats [1]; vehicle pretreatment, 5-MeO-DMT 1.0 mg/kg SC, 45 min, experiment 1, n=10): 274.12±56.96
Effect on PPI (Sprague–Dawley rats [2]; 5-MeO-DMT 1.0 mg/kg SC in animals pretreated with clorgyline 0.3 mg/kg, 45 min, all three prepulse intensities, p<0.01): significantly reduced PPI
Effect on PPI (Sprague–Dawley rats [2]; 5-MeO-DMT 1 mg/kg SC in animals pretreated with pargyline 10 mg/kg, 45 min, all three prepulse intensities, p<0.01): significantly reduced PPI
Effect on PPI (Sprague–Dawley rats [2]; 5-MeO-DMT 1.0 mg/kg SC, saline-pretreated animals, 45 min, experiment 2): did not alter PPI
Effect on PPI (Sprague–Dawley rats [2]; 5-MeO-DMT 0.1 or 1.0 mg/kg SC, saline-pretreated animals, tested 45 min post-injection, experiment 1): did not alter PPI
Crossings (locomotor activity) versus vehicle pretreatment (Sprague–Dawley rats [3]): significantly more crossings
time at which level of 5-MeO-DMT in plasma peaked [4, 9]: ≤ 20 min
AUC [4, 10]: 31.4 ± 2.3 ng·h/mL
AUC ([4]; vehicle pretreatment): 12.2 ± 1.7 ng·h/mL
Cmax [4, 10]: 78.1 ± 9.5 ng/mL
Cmax ([4]; vehicle pretreatment): 52.7 ± 11.8 ng/mL
peak level of 5-MeO-DMT in the brain ([5]; 1 mg/kg SC, no MAO inhibitor): 144.3 nM
time at which level of 5-MeO-DMT in brain peaked [5, 9]: ≤ 20 min
Cmax ([5]; 1 mg/kg SC, clorgyline 0.3 mg/kg pretreatment): 634 ± 146 ng/g
Cmax ([5]; 1 mg/kg SC, vehicle pretreatment): 30.3 ± 11.2 ng/g
doses eliciting the head twitch response (HTR) (5-HT2A [6]): 0.2 to 1 mg/kg
concentration of 5-MeO-DMT required to activate 5-HT2A (5-HT2A [7]; ref Blair et al. 2000, Parrish and Nichols 2006): low micromolar range
concentration of 5-MeO-DMT required to activate 5-HT2A (5-HT2A [7]; ref Newton et al. 1996, Rabin et al. 2002, Kurrasch-Orbaugh et al. 2003, Strachan et al. 2010): several hundred nanomolar
concentrations inhibiting 5-HT uptake (5-HT uptake): low micromolar concentrations
increase of 5-MeO-DMT blood levels by iproniazid [8]: 40 fold
increase of 5-MeO-DMT brain levels by iproniazid [8]: ~100 fold

C#CCN(C)CCCOc1ccc(Cl)cc1Cl.Cl [Clorgyline, N-methyl-N-propargyl-3-(2,4-dichlorophenoxy)-propylamine HCl]
Startle magnitude (mean±SEM) (Sprague–Dawley rats [1]; clorgyline 0.3 mg/kg SC pretreatment, vehicle treatment, experiment 2, n=12): 422.31±78.47

OC(c1ccccc1)C1CCN(CCc2ccccc2)CC1 (stereo not drawn) [MDL 11,939, α-Phenyl-1-(2-phenylethyl)-4-piperidinemethanol]
Startle magnitude (mean±SEM) (Sprague–Dawley rats [1]; MDL 11,939 0.3 mg/kg pretreatment, pargyline 10 + 5-MeO-DMT 1.0 mg/kg, experiment 3, n=10): 419.79±48.30
Effect of pretreatment on ability of pargyline and 5-MeO-DMT to reduce PPI (Sprague–Dawley rats [2]; MDL 11,939 0.3 mg/kg pretreatment, p<0.01, Tukey's test): significantly attenuated

C#CCN(C)Cc1ccccc1 [Pargyline, pargyline HCl]
Startle magnitude (mean±SEM) (Sprague–Dawley rats [1]; pargyline 10 mg/kg SC pretreatment, vehicle treatment, experiment 1, n=10): 167.66±22.30
Effect on PPI (Sprague–Dawley rats [2]; pargyline 10 mg/kg alone compared with vehicle pretreatment): did not significantly reduce PPI

COc1ccccc1N1CCN(CCN(C(=O)C2CCCCC2)c2ccccn2)CC1.O=C(O)/C=C\C(=O)O [WAY-100635, N-[2-[4-(2-methoxyphenyl)-1-piperazinyl]ethyl]-N-2-pyridinylcyclohexanecarboxamide maleate]
Startle magnitude (mean±SEM) (Sprague–Dawley rats [1]; WAY-100635 1.0 mg/kg SC pretreatment, vehicle treatment, experiment 3, n=10): 271.30±51.26
Startle magnitude (mean±SEM) (Sprague–Dawley rats [1]; WAY-100635 1.0 mg/kg pretreatment, pargyline 10 + 5-MeO-DMT 1.0 mg/kg, experiment 3, n=10): 172.03±47.00
Effect of pretreatment on reduction of PPI produced by 10 mg/kg pargyline and 1 mg/kg 5-MeO-DMT (Sprague–Dawley rats [2]; WAY-100,635 1 mg/kg pretreatment, p<0.01, Tukey's test): significantly antagonized
